Laboratory results: ChEMBL document CHEMBL4138088, “Novel 1-(7-ethoxy-1-benzofuran-2-yl) substituted chalcone derivatives: Synthesis, characterization and anticancer activity” (Eur J Med Chem, 2017)
Activity calls are given as the source filed them. No cut-off for these calls is given here.

What was measured:
Format in all cases: functional, cell-based
HCT-116 [1] = assay: Antiproliferative activity against human HCT116 cells after 6 hrs by MTT assay; details: HCT-116, 6 h
HCT-116 [2] = assay: Antiproliferative activity against human HCT116 cells after 12 hrs by MTT assay; details: HCT-116, 12 h
HCT-116 [3] = assay: Antiproliferative activity against human HCT116 cells after 24 hrs by MTT assay; details: HCT-116, 24 h
HCT-116 [4] = assay: Antiproliferative activity against human HCT116 cells after 48 hrs by MTT assay; details: HCT-116, 48 h
MCF7 [5] = assay: Growth inhibition of human MCF7 cells at 20 uM after 72 hrs by ATP bioluminescence assay
MCF7 [6] = assay: Growth inhibition of human MCF7 cells at 20 uM after 72 hrs by SRB assay

With COc1cc(/C=C/C(=O)c2cccc(-n3c(C)nc4ccccc4c3=O)c2)ccc1O the IC50 (HCT-116 [1]) was 600 µM, the IC50 (HCT-116 [2]) was 140 µM and the IC50 (HCT-116 [3]) was 26 µM. It also gave an IC50 (HCT-116 [4]) of 16 µM.

With CCOc1cccc2cc(C(=O)/C=C/c3cccs3)oc12 the “growth inhibition (GI)” value (MCF7 [5]) was “Active” and the “growth inhibition (GI)” value (MCF7 [6]) was “Active”.
